From US20220381783A1, “BIOMARKER” (Oxford University Innovation Limited, priority 2019, published 2022)

How the values were obtained:
[1] = target: T1, interaction between TEX264 and TOP1 (Homo sapiens, UniProt P11387); assay: Co-immunoprecipitation of TEX264-FLAG with TOP1; format: cell-based; settings: HEK293 cells
T1 construct: FLAG immunoprecipitates prepared from HEK293 cells transiently expressing TEX264WT-FLAG cDNA or EV; expressed in transfected cells; host or cells: HEK293, transiently transfected with pCDNA3.1 TEX264-FLAG
T1 sequence (P11387 2-765 limits assumed): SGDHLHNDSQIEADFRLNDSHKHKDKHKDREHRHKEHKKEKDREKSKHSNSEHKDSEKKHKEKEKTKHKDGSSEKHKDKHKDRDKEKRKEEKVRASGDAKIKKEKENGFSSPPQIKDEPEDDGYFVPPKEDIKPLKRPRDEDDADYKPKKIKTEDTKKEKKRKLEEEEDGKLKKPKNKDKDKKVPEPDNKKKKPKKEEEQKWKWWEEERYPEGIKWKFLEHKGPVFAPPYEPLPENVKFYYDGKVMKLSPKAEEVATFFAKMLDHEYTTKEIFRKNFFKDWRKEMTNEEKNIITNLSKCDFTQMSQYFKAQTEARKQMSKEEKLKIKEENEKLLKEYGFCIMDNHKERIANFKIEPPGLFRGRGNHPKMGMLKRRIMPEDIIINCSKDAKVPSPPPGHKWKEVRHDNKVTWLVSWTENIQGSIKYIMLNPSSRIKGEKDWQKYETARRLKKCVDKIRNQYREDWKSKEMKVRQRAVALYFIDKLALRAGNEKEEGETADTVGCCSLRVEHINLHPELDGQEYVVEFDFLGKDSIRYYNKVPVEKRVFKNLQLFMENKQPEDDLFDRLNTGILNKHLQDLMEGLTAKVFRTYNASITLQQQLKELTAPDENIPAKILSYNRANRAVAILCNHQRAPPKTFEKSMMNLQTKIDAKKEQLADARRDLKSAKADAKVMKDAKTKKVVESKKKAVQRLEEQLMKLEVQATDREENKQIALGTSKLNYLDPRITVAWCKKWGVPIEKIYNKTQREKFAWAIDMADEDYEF
Protocol: FIG. 2D, FLAG immunoprecipitates prepared from HEK293 cells transiently expressing TEX264WT-FLAG cDNA or EV, treated with CPT (25 nM) or DMSO for 1 hour. FIG. 2E, Immunoblots of anti-Strep-tag immunoprecipitates prepared from wild-type (WT) or ΔTEX264 HEK293 cells expressing p97-Strep-Myc.
FIG. 7G, Immunoblot analysis of TEX264-FLAG immunoprecipitates prepared from HEK293 cells treated with the indicated doses of CPT for 1 hour.
(§2) Cells were lysed in IP lysis buffer (50 mM Tris, pH 7.4, 150 mM NaCl, 1 mM EDTA, 0.5% Triton X-100) or IP denaturing buffer (i.e. IP lysis buffer containing 1% SDS) supplemented with protease and phosphatase inhibitors and incubated on ice for 10 min. Denaturing IPs were quenched with Triton X-100 (to a final concentration of 1%). Chromatin was pelleted by centrifugation for 5 min at 1,000×g and then digested with Benzonase at room temperature in Benzonase buffer (2 mM MgCl2, 50 mM Tris, pH 7.4, 150 mM NaCl). Lysates were incubated with anti-FLAG M2 agarose (Sigma-Aldrich), Strep-Tactin Sepharose (IBA), or GFP-trap agarose (Chromotek) for 1-2 h on a rotator at 4° C., washed three times with IP wash buffer (150 mM NaCl, 50 mM Tris-HC1; 0.5 mM EDTA), and resuspended in 2× Laemmli buffer.

SUMOylated TOP1 = assay: Denaturing immunoprecipitation of YFP-TOP1, SUMO immunoblot; format: cell-based, human; settings: HEK293 cells, short treatment with a low dose (25 nM, 1 hour)
Protocol: FIG. 9A, Immunoblot analysis of SUMO1 & SUMO2/3 after denaturing immunoprecipitation of YFP-TOP1 from HEK293 cells treated or not with CPT (25 nM) for 1 or 24 hours. […] Asterisks indicate SUMOylated TOP1.
as §2

TOP1cc = target: T2, TOP1cc (Homo sapiens, UniProt P11387); assay: RADAR assay of TOP1cc accumulation; format: cell-based; settings: HEK293 cells, 1 μM CPT for 1 hour, positive control
T2 construct: endogenous in cells; host or cells: HEK293
T2 sequence (P11387 2-765 limits assumed): T1 sequence (P11387 2-765 limits assumed)
Protocol: Treatment with 1 μM CPT for 1 hour was used as a positive control for TOP1cc induction. Double-stranded (ds)DNA is used as a loading control. […] FIG. 1C, Quantification of Figure 1A (error bars represent mean ±SEM; n=3; ***P<0.001, **P<0.01; Student's t-test).
Cells were grown to ˜70% confluency then lysed in M buffer (MB), containing 6 M guanidine thiocyanate, 10 mM Tris—HCl (pH 6.8), 20 mM EDTA, 4% Triton X-100, 1% N-lauroylsarcosine and 1% dithiothreitol. DNA was precipitated by adding 100% ethanol, then washed three times in wash buffer (20 mM Tris—HC1 pH 7.4, 150 mM NaCl and 50% ethanol), and solubilized in 8 mM NaOH. […] For TOP1ccs, samples were digested with Benzonase for 30 minutes at 37° C. and analysed by slot blot analysis on a Nitrocellulose membrane.
By lysing cells in chaotropic salts (6M guanidium isothiocyanate), detergents (4% Triton X-100 and 1% N-lauroylsarcosine), and a reducing agent (1% DTT), all molecular interactions, other than covalent interactions, are disrupted.

HEK293 cells = assay: Puromycin dose required to kill wild-type cells; format: cell-based, Human
Protocol: (§1) To generate CRISPR-Cas9 TEX264 knockout cells, two plasmids —a CRISPR/Cas9 KO plasmid containing guide RNA targeting TEX264 (sc-417333), and a homology directed repair plasmid containing a puromycin resistance cassette (sc-417333-HDR)—were purchased from Santa Cruz. 2.5 μg of each plasmid was transfected into early-passage HEK293, HeLa, and U2OS cells using Fugene HD (Promega). After 72 hours, media supplemented with puromycin was added to the cells. The puromycin dose required to kill wild-type cells was determined to be: 1.25 μg/ml for HEK293 cells, 0.6 μg/ml for HeLa cells, and 1 μg/ml for U2OS cells. After 72 hours, the puromycin-containing media was removed and cells were sorted using a cell sorter into single-cell populations on a 96-well plate. TEX264 expression was analysed by immunoblotting. Multiple clones of each cell line showing loss of all detectable TEX264 were selected for subsequent analysis.

U2OS cells = assay: Puromycin dose required to kill wild-type cells; format: cell-based, Human
Protocol: as §1

HeLa cells = assay: Puromycin dose required to kill wild-type cells; format: cell-based, Human
Protocol: as §1

[2] = system: metastatic colorectal cancer; settings: patients with metastatic colorectal cancer; cited from earlier work
[3] = target: T3, endogenous p97 of HEK293 cells (human, UniProt P55072 2-806); assay: anti-Strep-tag immunoprecipitation from HEK293 cells, immunoblot (FIG. 10c)
T3 construct: Detected in immunoprecipitates by mass spectrometry or immunoblot; also called AAA ATPase p97
T3 sequence (P55072 2-806 limits assumed): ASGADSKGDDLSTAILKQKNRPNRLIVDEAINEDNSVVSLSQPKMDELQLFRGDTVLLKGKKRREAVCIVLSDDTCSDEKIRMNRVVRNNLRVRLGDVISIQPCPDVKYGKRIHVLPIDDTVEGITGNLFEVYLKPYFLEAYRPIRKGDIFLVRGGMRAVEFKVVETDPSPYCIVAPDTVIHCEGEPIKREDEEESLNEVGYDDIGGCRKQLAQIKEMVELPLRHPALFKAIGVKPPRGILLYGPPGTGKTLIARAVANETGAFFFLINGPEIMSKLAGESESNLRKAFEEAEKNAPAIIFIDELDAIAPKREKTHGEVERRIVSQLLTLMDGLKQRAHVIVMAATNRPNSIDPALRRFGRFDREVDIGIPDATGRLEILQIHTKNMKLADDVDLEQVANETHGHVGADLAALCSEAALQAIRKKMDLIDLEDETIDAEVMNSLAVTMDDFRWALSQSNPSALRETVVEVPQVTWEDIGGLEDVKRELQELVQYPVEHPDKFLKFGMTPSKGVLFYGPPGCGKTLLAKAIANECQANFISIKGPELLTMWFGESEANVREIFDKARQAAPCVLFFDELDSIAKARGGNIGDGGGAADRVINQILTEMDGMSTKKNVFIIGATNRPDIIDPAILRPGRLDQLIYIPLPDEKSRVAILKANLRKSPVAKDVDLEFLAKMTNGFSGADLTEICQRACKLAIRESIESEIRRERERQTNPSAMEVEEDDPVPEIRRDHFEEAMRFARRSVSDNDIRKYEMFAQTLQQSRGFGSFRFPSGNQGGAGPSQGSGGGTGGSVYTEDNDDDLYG
Protocol: FIG. 10A, Colony forming assay to assess the survival of HeLa cells transfected with the indicated siRNAs following a 24 hour treatment with the indicated doses of CPT. FIG. 10B, Immunoblots to confirm depletion efficacy in A. FIG. 10C, Analysis of anti-Strep-tag immunoprecipitates prepared from HEK293 cells expressing SPRTN-SSH, transfected with the indicated siRNA. FIG. 10D, Total DNA-protein crosslinks (DPCs) isolated by RADAR from HEK293 cells treated with the indicated siRNAs. DPCs were resolved by SDS-PAGE and visualised by silver staining. FIG. 10E, Quantification of FIG. 10D (error bars represent mean ±SD; n=2; **P<0.01; ns, not significant; Student's t-test). FIG. 10F, In vitro TOP1cc repair assay. TOP1ccs were purified by CsCl-gradient centrifugation from HEK293 cells, incubated with the indicated purified proteins (100 nM/reaction), slot-blotted onto a nitrocellulose membrane and probed with a […] -specific antibody.
To explore how TEX264 regulates SPRTN-dependent TOP1cc processing, SPRTN-SSH was immunoprecipitated from wild-type and TEX264-depleted HEK293 cell extracts. […] As p97 exists in hexameric complexes, it can bind multiple cofactors at a time (Buchberger et al., 2015; Hänzelmann et al., 2011). […]

[4] = target: T4, TOP1 cleavage complexes purified from HEK293 cells by CsCl-gradient fractionation
T4 chain: T1 sequence (P11387 2-765 limits assumed)

For CC[C@@]1(O)C(=O)OCc2c1cc1n(c2=O)Cc2cc3ccccc3nc2-1 [CPT, Camptothecin], the “co-immunoprecipitation of TOP1 with p97 or TEX264” value ([1]; 1 μM CPT) was “did not co-immunoprecipitate”, the “interaction between TEX264 and TOP1” value ([1]; CPT 25 nM for 1 hour) was “increased markedly” and the “SUMOylated TOP1, particularly SUMO1” value (SUMOylated TOP1) was “moderate increases”. The TOP1cc accumulation (TOP1cc) was “substantial TOP1cc accumulation”.

For COc1ccc(C[C@H](N)C(=O)N[C@H]2[C@@H](O)[C@H](n3cnc4c(N(C)C)ncnc43)O[C@@H]2CO)cc1 [puromycin], the “puromycin dose required to kill wild-type cells” value (shortened to “puromycin dose required”) (HEK293 cells) was 1.25 µg/mL, the “puromycin dose required” value (U2OS cells) was 1 µg/mL and the “puromycin dose required” value (HeLa cells) was 0.6 µg/mL.

In the case of O=c1[nH]cc(F)c(=O)[nH]1 [FU, fluorouracil], the patient response rates [2] is listed as 10-15%.

B1: SPRTN-SSH expressed in HEK293 cells (enzyme)
chain: MDDDLMLALRLQEEWNLQEAERDHAQESLSLVDASWELVDPTPDLQALFVQFNDQFFWGQLEAVEVKWSVRMTLCAGICSYEGKGGMCSIRLSEPLLKLRPRKDLVETLLHEMIHAYLFVTNNDKDREGHGPEFCKHMHRINSLTGANITVYHTFHDEVDEYRRHWWRCNGPCQHRPPYYGYVKRATNREPSAHDYWWAEHQKTCGGTYIKIKEPENYSKKGKGKAKLGKEPVLAAENKDKPNRGEAQLVIPFSGKGYVLGETSNLPSPGKLITSHAINKTQDLLNQNHSANAVRPNSKIKVKFEQNGSSKNSHLVSPAVSNSHQNVLSNYFPRVSFANQKAFRGVNGSPRISVTVGNIPKNSVSSSSQRRVSSSKISLRNSSKVTESASVMPSQDVSGSEDTFPNKRPRLEDKTVFDNFFIKKEQIKSSGNDPKYSTTTAQNSSSSSSQSKMVNCPVCQNEVLESQINEHLDWCLEGDSIKVKSEESL
notes: also called SPRTN-wt-cSSH; not shown: C-terminal SSH tag (pulled down by anti-Strep-tag)
With B1 the binding result [3] was “binds”, the “in vitro TOP1cc repair assay (slot blot with TOP1cc-specific antibody), SPRTN alone” value [4] was “SPRTN alone could process only a small proportion of TOP1ccs” and the “in vitro TOP1cc repair assay (slot blot with TOP1cc-specific antibody), TOP1ccs pre-incubated with p97 and TEX264” value [4] was “this activity was enhanced when TOP1ccs were pre-incubated with p97 and TEX264 prior to the addition of SPRTN”.
